{"source": "patent US20140205631A1", "about": "“Stimulation of vaccination by angiotensin peptides” (University of Southern California, priority 2013, published 2014)", "key": {"[1]": {"tested_on": "FIV-p24 antigen", "assay": "Serum IgG antibody titers (ELISA) after vaccination of cats", "assay_type": "in vivo, feline immunodeficiency virus (FIV)", "conditions": "for Serum IgG anti-FIVp24 antigen Titers: lowest dilution 1:20", "protocol": "(§1) Animals: Eleven (11) female outbred cats>24 weeks old that were free of FIV, feline leukemia virus (FeLV) and feline infectious peritonitis virus were employed. The animals were restrained for the application of test articles to mucous membranes and collection of blood and mucosal secretions. Sedation, if necessary, was induced by subcutaneous administration of ketamine hydrochloride (22 mg/kg) and acepromazine maleate (0.1 mg/kg). Euthanasia was accomplished with a lethal overdose of barbiturates. All activities were approved by the Institutional Animal Care and Use Committee and supervised by veterinary staff.\n(§2) Vaccine Preparation: Fel-O-Vax FIV (Fort Dodge Animal Health, Fort Dodge, Iowa) and A(1-7) was combined in a constant volume of 2% hydroxyethyl cellulose (2% HEC). The range of concentrations of A(1-7) ranged from 0 to 10 mg/mL with a constant 0.33 mL of Fel-O-Vax FIV suspended in each mL of the gel applied for vaccination purposes. Two control animals received intramuscular Fel-O-Vax FIV at baseline, week 3 and week 5. One control animal had mucosal vaccination with Fel-O-Vax alone suspended in the 2% HEC without A(1-7) and one control animal received intramuscular Fel-O-Vax FIV with 0.3 mg/kg of A(1-7) at baseline, week 3 and week 5.\n(§3) Delivery of angiotensin(1-7) and FIV vaccine to mucosal surfaces: 2% HEC, a viscous gel, was used as the vehicle for the topical delivery of angiotensin(1-7) and FIV vaccine. The topical vaccine was applied to the mucosal surface weekly for 6 consecutive weeks. 1.0 mL was applied to the muzzle for oral mucosal vaccination and 1.0 mL and 0.2 mL was instilled in the rectal and vaginal vaults, respectively for mucosal vaccination at these sites.\n(§4) The local immune response in mucosal secretions was evaluated against the homologous FIV-p24 antigen (Cell Biolabs, Inc, San Diego, Calif.) or the heterologous HIV-gp120 antigen (ImmunoDiagnostics, Inc, Woburn, Mass.). Plates were prepared with 50 ng/mL FIV-p24 antigen or with 500 ng/mL HIV-gp120 antigen (Bachem Americans, Inc, Torrance, Calif.) incubated over night at 4° C., washed and the target sample added and incubated overnight again at 4° C. The plates were washed and the indicator goat anti-feline IgG (Accurate Chemical & Scientific Corp., Westbury, N.Y., working titer 1:10,000) or goat anti-feline IgA (Accurate Chemical & Scientific Corp., Westbury, N.Y., working titer 1:1,000) added and incubated for 24 hours at 4° C. Following a final wash, substrate solution was added. The stop solution was added after 15 minutes for the IgG reaction and after 30 minutes for the IgA reaction. Plates were read at 450 nm."}, "[2]": {"tested_on": "FIV-p24 antigen", "assay": "Oral secretion SIgA antibody titers (ELISA) after vaccination of cats", "assay_type": "in vivo, feline immunodeficiency virus (FIV)", "protocol": "as §1, §2, §3\nMeasurement of Local Immune Response: The Weck-Cel Surgical Spear (Windsor Biomedical, Newton, N.H.) was used to obtain secretions. Once inserted, the sponge is allowed to remain in place for 5 minutes. The secretions were extracted by centrifugation with 300 μL of a buffer solution. The buffer solution is prepared by mixing 50 μL of 100× protease inhibitor cocktail and 250 μL of 10% Igepal (Sigma, St Louis, Mo., U.S.A.) with 4.7 ml of phosphate-buffered saline (PBS) containing 0.25% bovine serum albumin (BSA, Fraction V; Sigma). The 100× protease inhibitor cocktail contains 100 μg/mL aprotinin, 500 μg/mL leupeptin, 100 μg/mL bestatin (all Sigma), and 50 μg/mL 4-(2-Aminoethyl)-benzenesulfonyl fluoride hydrochloride (Roche Applied Sciences, U.S.A.) in phosphate buffered saline.\nas §4"}}, "data": [{"substance": "Asp-Arg-Val-Tyr-Ile-His-Pro (DRVYIHP) [A(1-7)]", "values": [{"measurement": "Serum IgG anti-FIVp24 antigen Titers", "setting": "[1]; topical Fel-O-Vax FIV + 0.1 A(1-7) in 2% HEC, Week 4", "value": "Negative"}, {"measurement": "Serum IgG anti-FIVp24 antigen Titers", "setting": "[1]; topical Fel-O-Vax FIV + 0.1 A(1-7) in 2% HEC, Week 8", "value": "Negative"}, {"measurement": "Serum IgG anti-FIVp24 antigen Titers", "setting": "[1]; topical Fel-O-Vax FIV + 0.2 A(1-7) in 2% HEC, Week 4", "value": "Negative"}, {"measurement": "Serum IgG anti-FIVp24 antigen Titers", "setting": "[1]; topical Fel-O-Vax FIV + 0.4 A(1-7) in 2% HEC, Week 4", "value": "Negative"}, {"measurement": "Serum IgG anti-FIVp24 antigen Titers", "setting": "[1]; topical Fel-O-Vax FIV + 0.4 A(1-7) in 2% HEC, Week 8", "value": "Negative"}, {"measurement": "Serum IgG anti-FIVp24 antigen Titers", "setting": "[1]; topical Fel-O-Vax FIV + 5.0 A(1-7) in 2% HEC, Week 2", "value": "Negative"}, {"measurement": "Serum IgG anti-FIVp24 antigen Titers", "setting": "[1]; topical Fel-O-Vax FIV + 5.0 A(1-7) in 2% HEC, Week 4", "value": "Negative"}, {"measurement": "Serum IgG anti-FIVp24 antigen Titers", "setting": "[1]; topical Fel-O-Vax FIV + 5.0 A(1-7) in 2% HEC, Week 6", "value": "Negative"}, {"measurement": "Serum IgG anti-FIVp24 antigen Titers", "setting": "[1]; topical Fel-O-Vax FIV + 5.0 A(1-7) in 2% HEC, Week 8", "value": "Negative"}, {"measurement": "Serum IgG anti-FIVp24 antigen Titers", "setting": "[1]; topical Fel-O-Vax FIV + 7.5 A(1-7) in 2% HEC, Week 2", "value": "Negative"}, {"measurement": "Serum IgG anti-FIVp24 antigen Titers", "setting": "[1]; topical Fel-O-Vax FIV + 7.5 A(1-7) in 2% HEC, Week 4", "value": "Negative"}, {"measurement": "Serum IgG anti-FIVp24 antigen Titers", "setting": "[1]; topical Fel-O-Vax FIV + 7.5 A(1-7) in 2% HEC, Week 6", "value": "Negative"}, {"measurement": "Serum IgG anti-FIVp24 antigen Titers", "setting": "[1]; topical Fel-O-Vax FIV + 7.5 A(1-7) in 2% HEC, Week 8", "value": "Negative"}, {"measurement": "Serum IgG anti-FIVp24 antigen Titers", "setting": "[1]; topical Fel-O-Vax FIV + 10.0 A(1-7) in 2% HEC, Week 2", "value": "Negative"}, {"measurement": "Serum IgG anti-FIVp24 antigen Titers", "setting": "[1]; topical Fel-O-Vax FIV + 10.0 A(1-7) in 2% HEC, Week 4", "value": "Negative"}, {"measurement": "Serum IgG anti-FIVp24 antigen Titers", "setting": "[1]; topical Fel-O-Vax FIV + 10.0 A(1-7) in 2% HEC, Week 6", "value": "Negative"}, {"measurement": "Serum IgG anti-FIVp24 antigen Titers", "setting": "[1]; topical Fel-O-Vax FIV + 10.0 A(1-7) in 2% HEC, Week 8", "value": "Negative"}, {"measurement": "dose response effect on serum IgG antibody titers to FIVp24 antigen", "setting": "[1]; topical vaccination, increasing dose levels of A(1-7)", "value": "no discernible dose response effect"}, {"measurement": "SIgA Anti-FIV-p24", "setting": "[2]; IM Fel-O-Vax FIV + 0.3 mg/kg A(1-7), Week 2, lowest dilution Undilute", "value": "Negative"}, {"measurement": "SIgA Anti-FIV-p24", "setting": "[2]; IM Fel-O-Vax FIV + 0.3 mg/kg A(1-7), Week 4, lowest dilution Undilute", "value": "Undilute"}, {"measurement": "SIgA Anti-FIV-p24", "setting": "[2]; IM Fel-O-Vax FIV + 0.3 mg/kg A(1-7), Week 8, lowest dilution Undilute", "value": "Undilute"}, {"measurement": "SIgA Anti-FIV-p24", "setting": "[2]; topical Fel-O-Vax FIV + 0.1 A(1-7) in 2% HEC, Week 2, lowest dilution Undilute", "value": "Negative"}, {"measurement": "SIgA Anti-FIV-p24", "setting": "[2]; topical Fel-O-Vax FIV + 0.1 A(1-7) in 2% HEC, Week 4, lowest dilution Undilute", "value": "Negative"}, {"measurement": "SIgA Anti-FIV-p24", "setting": "[2]; topical Fel-O-Vax FIV + 0.1 A(1-7) in 2% HEC, Week 6, lowest dilution Undilute", "value": "Undilute"}, {"measurement": "SIgA Anti-FIV-p24", "setting": "[2]; topical Fel-O-Vax FIV + 0.1 A(1-7) in 2% HEC, Week 8, lowest dilution Undilute", "value": "Negative"}, {"measurement": "SIgA Anti-FIV-p24", "setting": "[2]; topical Fel-O-Vax FIV + 0.2 A(1-7) in 2% HEC, Week 2, lowest dilution Undilute", "value": "Negative"}, {"measurement": "SIgA Anti-FIV-p24", "setting": "[2]; topical Fel-O-Vax FIV + 0.2 A(1-7) in 2% HEC, Week 4, lowest dilution Undilute", "value": "Negative"}, {"measurement": "SIgA Anti-FIV-p24", "setting": "[2]; topical Fel-O-Vax FIV + 0.2 A(1-7) in 2% HEC, Week 6, lowest dilution Undilute", "value": "Negative"}, {"measurement": "SIgA Anti-FIV-p24", "setting": "[2]; topical Fel-O-Vax FIV + 0.2 A(1-7) in 2% HEC, Week 8, lowest dilution Undilute", "value": "Negative"}, {"measurement": "SIgA Anti-FIV-p24", "setting": "[2]; topical Fel-O-Vax FIV + 0.3 A(1-7) in 2% HEC, Week 2, lowest dilution Undilute", "value": "Negative"}, {"measurement": "SIgA Anti-FIV-p24", "setting": "[2]; topical Fel-O-Vax FIV + 0.3 A(1-7) in 2% HEC, Week 4, lowest dilution Undilute", "value": "Negative"}, {"measurement": "SIgA Anti-FIV-p24", "setting": "[2]; topical Fel-O-Vax FIV + 0.3 A(1-7) in 2% HEC, Week 6, lowest dilution Undilute", "value": "Negative"}, {"measurement": "SIgA Anti-FIV-p24", "setting": "[2]; topical Fel-O-Vax FIV + 0.3 A(1-7) in 2% HEC, Week 8, lowest dilution Undilute", "value": "Negative"}, {"measurement": "SIgA Anti-FIV-p24", "setting": "[2]; topical Fel-O-Vax FIV + 0.4 A(1-7) in 2% HEC, Week 4, lowest dilution Undilute", "value": "Undilute"}, {"measurement": "SIgA Anti-FIV-p24", "setting": "[2]; topical Fel-O-Vax FIV + 0.4 A(1-7) in 2% HEC, Week 6, lowest dilution Undilute", "value": "Negative"}, {"measurement": "SIgA Anti-FIV-p24", "setting": "[2]; topical Fel-O-Vax FIV + 5.0 A(1-7) in 2% HEC, Week 2, lowest dilution Undilute", "value": "Undilute"}]}]}
